Results as given in patent US5506213A, “Adminstration of 2'-halo-2'-deoxy adenosine to treat inflammatory bowel disease” (priority 1994, dated 1996).
pIC50: −log10 of the molar value.

Tests used:
[1] = test system: neopterin; assay: Plasma neopterin levels in a rheumatoid arthritis patient treated with CdA; assay type: in vivo, human
Protocol: Plasma neopterin levels were measured in a patient with rheumatoid arthritis. Neopterin is released from monocytes and macrophages activated in an immune response. Huber et al., J. Exp. Med., 160:310-316 (1984). Likewise, high levels of neopterin are associated with clinical activity in patients with rheumatoid arthritis. Clinical activity was rated by the following criteria: duration of morning stiffness, range of motion, subjective pain score, measurement of grip strength, synovial thickening, and number of inflamed joints. Reibnegger et al., Arthritis Rheum., 29:1063-1070 (1986). The levels of neopterin in patients with rheumatoid arthritis are proportional to both clinical activity and the levels of activated monocytes and macrophages in these patients.
In this study, a patient with rheumatoid arthritis received CdA by a weekly, four hour intravenous infusion at a dosage of 0.125 to 0.15 mg/kg body weight for an approximately three month course of therapy. Plasma neopterin levels were measured throughout this treatment regime.

[2] = test system: CEM, Increased 5'-nucleoside; assay: Direct comparative cytotoxicity assay (Table II), CEM increased 5'-nucleoside; assay type: cell-based, human; settings: Homo sapiens, 120 h, read-out: ID50: concentration that produced 50 percent reduction in all numbers after five days
From the text: (§1) The two compounds, CdA and CAFdA, were also compared for in vitro activity against another group of human cell lines in a direct comparative assay.
(§2) ^1 Concentration that produced 50 percent reduction in all numbers
(§3) ^2 CEM cells are T lymphoblasts; DHL9 cells are lymphoblasts.

[3] = test system: intact human cells or cell extracts; settings: cited from earlier work
[4] = test system: DHL9, Increased ribonucleotide reduction; assay: Direct comparative cytotoxicity assay (Table II), DHL9 increased ribonucleotide reduction; assay type: cell-based, human; settings: Homo sapiens, 120 h, read-out: ID50: concentration that produced 50 percent reduction in all numbers after five days
From the text: as §1, §2, §3

[5] = test system: human monocytes; assay: Cellular NAD, ATP and viability in human monocytes exposed to CdA; assay type: cell-based; settings: CdA at 1 nM
Protocol: FIG. 5 is a graph showing the biochemical effects induced in human monocytes in vitro by exposure to […] CdA over a period of 16 hours. The effects of CdA exposure upon monocyte viability (open squares), NAD content (closed squares), RNA synthesis (open circles) and DNA strand breaks (ds-DNA; closed circles) are illustrated.
Cellular NAD content was measured in human monocytes following incubation in culture with CdA (1 nM). An alcohol dehydrogenase cycling assay as described in Jacobson and Jacobson (1976) Arch. Biochem. Biophys. 175:627-634 was used to measure NAD.
Monocytes, cultured and contacted as before described, were detached from the culture wells and were treated with perchloric acid (0.5M) for 10 minutes at 4 degrees C. The mixture was clarified and neutralized with KOH containing potassium phosphate buffer (0.33M) at pH 7.5.Monocyte ATP was quantitated in perchloric acid extracts by anion exchange HPLC, using a Whatman SAX column with an isocratic mobile phase consisting of KH2 PO4 (0.25M), KCl (0.5M) and acetonitrile (2 percent) at pH 3.6 following the procedures of Carson et al. (1980) Proc. Nat'l. Acad, Sci. USA, 77:6865-6869.
NAD^+ consumption for poly(ADP-ribose) synthesis is a known consequence of severe DNA damage in eukaryotic cells. […]

[6] = test system: freshly isolated human monocytes; assay: Dose- and time-dependence of CdA cytotoxicity toward monocytes; assay type: cell-based; settings: 50 nM CdA (FIG. 3)
Protocol: FIG. 3 is a graph of the dose- and time-dependence of 2-chlorodeoxyadenosine (CdA) cytotoxicity toward human monocytes in vitro.
Freshly isolated human monocytes were cultured at a concentration of 10^5 cells/well in 96-well flat-bottom tissue culture plates. The cells were incubated in complete medium (Example 2) for about 12 hours following initial plating. The cells were then treated by the addition of various concentrations of CdA to form monocyte-containing compositions specific wells and the plates were incubated, as discussed previously.
The percentage of viable cells that were present in wells containing the treated monocytes was determined daily for six days.

[7] = test system: circulating peripheral blood monocytes, lymphocytes, neutrophils and platelets; assay: Cytotoxicity of CdA in vivo: blood cell counts in cutaneous T-cell lymphoma patients; parameters: species or system human
Protocol: FIG. 1 is a graph showing the results of a study of the cytotoxicity of 2-chlorodeoxyadenosine (CdA) toward three cell types in the peripheral blood of eight cutaneous T-cell lymphoma patients. A continuous intravenous infusion of CdA (0.1 mg/ml in isotonic saline) was administered to each patients at a dosage of 0.1 mg/kg per day, with the patients receiving therapy for seven days. Blood samples were removed daily and cell counts performed, with averaged values being shown. Graph symbols are as follows: open squares indicate the monocytes; plus signs indicate neutrophils (X10^-1); and closed diamonds indicate lymphocytes. The cell concentration (ordinate) is plotted for the day of treatment (abscissa) on which it is measured.
The effect of 2-chlorodeoxyadenosine (CdA) administration upon the level of circulating peripheral blood monocytes, lymphocytes, neutrophils and platelets was determined as follows.
Eight cutaneous T-cell lymphoma patients were administered continuous intravenous infusion of a composition containing 2-chlorodeoxyadenosine at a dosage of 0.1 mg/kg of body weight per day in isotonic saline. Blood samples were obtained daily and the number of viable cells present were enumerated daily for seven days after treatment.

[8] = test system: CEM, wild type; assay: Direct comparative cytotoxicity assay (Table II), CEM wild type; assay type: cell-based, human; settings: Homo sapiens, 120 h, read-out: ID50: concentration that produced 50 percent reduction in all numbers after five days
From the text: as §1, §2, §3

[9] = test system: antigen-induced arthritis; assay: Antigen-induced arthritis in rabbits; assay type: in vivo; settings: CdA 1 mg/kg, tepoxalin 25 mg/kg, naproxen 5 mg/kg
Protocol: Antigen-induced arthritis in rabbits is an animal model of rheumatoid arthritis. In this model, the rabbits are sensitized to an antigen such as ovalbumin or methylated bovine serum albumin in an adjuvant. Several weeks later, the same antigen is injected directly into the joints of the animal. […] Pettipher et al., Br. J. Exp. Path., 69:113-122 (1988).
Rabbits with antigen-induced arthritis were treated with CdA (1 mg/kg), tepoxalin (25 mg/kg) or naproxen (5 mg/kg).

Q: With `Nc1nc(Cl)nc2c1ncn2[C@H]1C[C@H](O)[C@@H](CO)O1` [CdA, 2-chloro-9,1'-beta-D-2'-deoxyribosyladenine] as the molecule, how does the plasma neopterin ([1]; by about day 84 of therapy) read?
A: about 18 nM

Q: What about the plasma neopterin ([1]; days 14 through 70 after the first administration) of the same molecule?
A: about 30 nM

Q: And the plasma neopterin ([1]; initial value, weekly four hour i.v. infusion 0.125 to 0.15 mg/kg)?
A: about 60 nM

Q: And the plasma neopterin ([1]; within the first seven days of therapy)?
A: about 25 nM

Q: What about the pIC50 [2] of the same molecule?
A: 7.22

Q: And the phosphorylation ([3]; T lymphocytes)?
A: phosphorylated efficiently

Q: And the catabolism ([3]; intact human cells or cell extracts)?
A: not catabolized significantly

Q: And the pIC50 [4]?
A: 5.40

Q: And the “exposure time at which decreases in ATP and cell viability were first evident” value [5]?
A: 16 h

Q: And the “monocyte NAD content” value ([5]; first four hours of exposure)?
A: > 95% of control NAD

Q: And the cell viability [6]?
A: significant decrease in cell viability within two days

Q: And the “time for monocyte numbers to return to approximately pre-administration values” ([7]; after cessation of the CdA administration)?
A: within about two weeks

Q: And the “decrease in number of circulating lymphocytes” value ([7]; by the end of period of infusion, 0.1 mg/kg per day)?
A: 30%

Q: And the “patients whose monocytes disappeared completely from the circulation” value ([7]; by the seventh treatment day, 0.1 mg/kg per day)?
A: four of the eight

Q: And the “mean level of monocyte decrease” value ([7]; day 7, 0.1 mg/kg per day continuous intravenous infusion, eight patients)?
A: 80%

Q: What about the “number of circulating neutrophils” value ([7]; seven days, 0.1 mg/kg per day) of the same molecule?
A: no significant decrease

Q: And the “platelet and hemoglobin levels” value ([7]; seven days, 0.1 mg/kg per day)?
A: constant

Q: And the pIC50 [8]?
A: 7.68

Q: What about the “pathological examination of joints compared to untreated controls” value [9] of the same molecule?
A: milder inflammatory response coupled with much less tissue damage
